How the values were obtained:
Assay type in all cases: cell-based
[1] = biological target: T1, EGFR L858R (BaF3-L858R cells) (Homo sapiens, UniProt P00533, L858R); assay: Cell degradation of EGFR, HTRF assay, BaF3-L858R cells; conditions: 16 h treatment; for DC50: EGFR degradation; for Dmax: maximum percentage of degradation
T1 construct: host or cells: BaF3
Method in brief: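 EGFR L858R levels measured by HTRF antibody pair in lysed BaF3-L858R cells after 16 h compound exposure (8-point 5-fold series from 10 uM final, 37° C). Degradation is relative to DMSO-only cells; DC50 fitted with Hill equation, Dmax taken as the largest percent loss.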

[2] = biological target: T2, EGFR-L858R/C797S (H1975-clone #8 cells) (Homo sapiens, UniProt P00533, C797S/L858R); assay: Cell degradation of EGFR, HTRF assay, H1975-clone#8 (L858R/C797S) cells; conditions: 16 h treatment; for DC50: EGFR degradation; for Dmax: maximum percentage of degradation
T2 construct: expressed in transfected cells; host or cells: H1975 (endogenous EGFR knocked out, clone #8)

[3] = biological target: T3, p-EGFR L858R (BaF3-L858R cells) (Homo sapiens, UniProt P00533, L858R); assay: Cell p-EGFR inhibition assay, HTRF, BaF3-L858R cells; conditions: 16 h treatment; for Imax (%): maximum percentage of pEGFR inhibition; for IC50: pEGFR inhibition
T3 construct: host or cells: BaF3
Method in brief: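 BaF3-L858R cells treated 16 h at 37 °C, 5% CO2 with compound from 10 uM top, 5-fold dilutions, 8 doses, in 0.1% DMSO medium. Lysates read overnight by HTRF p-EGFR antibodies; IC50 fitted to four-parameter curve against DMSO high control.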

[4] = biological target: p-EGFR Del19/C797S (H1975-clone #23 cells) (Homo sapiens, UniProt P00533); assay: Cell p-EGFR inhibition assay, HTRF, H1975-clone#23 (DEL19/C797S) cells; conditions: 16 h treatment; for Imax (%): maximum percentage of pEGFR inhibition; for IC50: pEGFR inhibition
Method in brief: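 Phospho-EGFR read by overnight HTRF on lysates, normalized to DMSO-treated high control; IC50, Hill slope and Imax fitted. Compounds were applied for 16 h (10 uM top, 5-fold steps, 8 doses) to an H1975 single clone carrying only exogenous Del19/C797S EGFR after sgRNA knockout of endogenous copies.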

SMILES	DC50 [1] [nM]	Dmax [1] [%]	DC50 [2] [nM]	Dmax [2] [%]	Imax (%) [3] [%]	IC50 [3] [nM]	Imax (%) [4] [%]	IC50 [4] [nM]
Cc1nn(C)c2c1-c1cc(cc(Cl)n1)C(=O)/N=C1\Nc3ccc(N4CCN(C5CCN(c6cc(F)c([C@H]7CCC(=O)NC7=O)c(F)c6)CC5)CC4)cc3N1C[C@@H]1CC[C@H](CO2)C1 [Example 179, (R)-3-(4-(4-(4-((7^1R,7^3S,E)-2^6-chloro-1^1,1^3-dimethyl-3-oxo-5^2,5^3-dihydro-1^1H,5^1H-9-oxa-4-aza-5(2,1)-benzo[d]imidazola-2(2,4)-pyridina-1(4,5)-pyrazola-7(1,3)-cyclopentanacyclononaphane-5^6-yl)piperazin-1-yl)piperidin-1-yl)-2,6-difluorophenyl)piperidine-2,6-dione]	5.38	90.8	10.6	89.6	99.14	14.4	100.7	2.85
Cc1cc2cc(n1)-c1c(C)nn(C)c1OC[C@H]1CC[C@H](C1)CN1/C(=N/C2=O)Nc2ccc(N3CCN(CC4CCN(c5cc(F)c([C@H]6CCC(=O)NC6=O)c(F)c5)CC4)CC3)cc21 [Example 182, (R)-3-(2,6-difluoro-4-(4-((4-((7^1R,7^3S,E)-1^1,1^3,2^6-trimethyl-3-oxo-5^2,5^3-dihydro-1^1H,5^1H-9-oxa-4-aza-5(2,1)-benzo[d]imidazola-2(2,4)-pyridina-1(4,5)-pyrazola-7(1,3)-cyclopentanacyclononaphane-5^6-yl)piperazin-1-yl)methyl)piperidin-1-yl)phenyl)piperidine-2,6-dione]	21.8	89.2	1.39	79.8	100.38	2.21	99.73	2.38
Cc1cc2cc(n1)-c1c(C)nn(C)c1OC[C@H]1CC[C@H](C1)CN1/C(=N/C2=O)Nc2ccc(N3CCN(CCC4CCN(c5cc(F)c([C@H]6CCC(=O)NC6=O)c(F)c5)CC4)CC3)cc21 [Example 183, (R)-3-(2,6-difluoro-4-(4-(2-(4-((7^1R,7^3S,E)-1^1,1^3,2^6-trimethyl-3-oxo-5^2,5^3-dihydro-1^1H,5^1H-9-oxa-4-aza-5(2,1)-benzo[d]imidazola-2(2,4)-pyridina-1(4,5)-pyrazola-7(1,3)-cyclopentanacyclononaphane-5^6-yl)piperazin-1-yl)ethyl)piperidin-1-yl)phenyl)piperidine-2,6-dione]	5.3	91.6	5.83	91.2	98.21	5.32	99.41	7.32
Cc1cc2cc(n1)-c1c(C)nn(C)c1OC[C@H]1CC[C@H](C1)CN1/C(=N/C2=O)Nc2ccc(N3CCN(C[C@@H]4CCN(c5cc(F)c([C@H]6CCC(=O)NC6=O)c(F)c5)C4)CC3)cc21 [Example 184, (R)-3-(2,6-difluoro-4-((S)-3-((4-((7^1R,7^3S,E)-1^1,1^3,2^6-trimethyl-3-oxo-5^2,5^3-dihydro-1^1H,5^1H-9-oxa-4-aza-5(2,1)-benzo[d]imidazola-2(2,4)-pyridina-1(4,5)-pyrazola-7(1,3)-cyclopentanacyclononaphane-5^6-yl)piperazin-1-yl)methyl)pyrrolidin-1-yl)phenyl)piperidine-2,6-dione]	4.99	90.1	3.16	89.3	91.67	1.25	100.52	2.48
Cc1cc2cc(n1)-c1c(C)nn(C)c1OC[C@H]1CC[C@H](C1)CN1/C(=N/C2=O)Nc2ccc(N3CCN(C4CCN(c5cc(F)c([C@H]6CCC(=O)NC6=O)c(F)c5)CC4)C[C@H]3C)cc21 [Example 190, (R)-3-(2,6-difluoro-4-(4-((R)-3-methyl-4-((7^1R,7^3S,E)-1^1,1^3,2^6-trimethyl-3-oxo-5^2,5^3-dihydro-1^1H,5^1H-9-oxa-4-aza-5(2,1)-benzo[d]imidazola-2(2,4)-pyridina-1(4,5)-pyrazola-7(1,3)-cyclopentanacyclononaphane-5^6-yl)piperazin-1-yl)piperidin-1-yl)phenyl)piperidine-2,6-dione]	3.11	88.2	1.69	94.9	91.5	0.58	100.67	1.2
Cc1cc2cc(n1)-c1c(C)nn(C)c1OC[C@H]1CC[C@H](C1)CN1/C(=N/C2=O)Nc2ccc(N3C[C@H](C)N(C4CCN(c5cc(F)c([C@H]6CCC(=O)NC6=O)c(F)c5)CC4)C[C@H]3C)cc21 [Example 191, (R)-3-(4-(4-((2S,5R)-2,5-dimethyl-4-((7^1R,7^3S,E)-1^1,1^3,2^6-trimethyl-3-oxo-5^2,5^3-dihydro-1^1H,5^1H-9-oxa-4-aza-5(2,1)-benzo[d]imidazola-2(2,4)-pyridina-1(4,5)-pyrazola-7(1,3)-cyclopentanacyclononaphane-5^6-yl)piperazin-1-yl)piperidin-1-yl)-2,6-difluorophenyl)piperidine-2,6-dione]	2.94	89.3	0.73	88.7	90.84	0.528	99.88	0.769

Second part, the compound after the results:

DC50 [1] [nM]	Dmax [1] [%]	DC50 [2] [nM]	Dmax [2] [%]	Imax (%) [3] [%]	IC50 [3] [nM]	Imax (%) [4] [%]	IC50 [4] [nM]	SMILES
8.27	89	10.7	85.4	94.16	15.2	101.78	3.6	COC[C@H]1CN(c2ccc3c(c2)N2C[C@@H]4CC[C@H](COc5c(c(C)nn5C)-c5cc(cc(Cl)n5)C(=O)/N=C/2N3)C4)CCN1C1CCN(c2cc(F)c([C@H]3CCC(=O)NC3=O)c(F)c2)CC1 [Example 176, (R)-3-(4-(4-((R)-4-((7^1R,7^3S,E)-2^6-chloro-1^1,1^3-dimethyl-3-oxo-5^2,5^3-dihydro-1^1H,5^1H-9-oxa-4-aza-5(2,1)-benzo[d]imidazola-2(2,4)-pyridina-1(4,5)-pyrazola-7(1,3)-cyclopentanacyclononaphane-5^6-yl)-2-(methoxymethyl)piperazin-1-yl)piperidin-1-yl)-2,6-difluorophenyl)piperidine-2,6-dione]
4.2	93.2	3.78	84.9	90.67	< 0.128	99.79	1.95	CC[C@@H]1CN(c2ccc3c(c2)N2C[C@@H]4CC[C@H](COc5c(c(C)nn5C)-c5cc(cc(C)n5)C(=O)/N=C/2N3)C4)CCN1C1CCN(c2cc(F)c([C@H]3CCC(=O)NC3=O)c(F)c2)CC1 [Example 188, (R)-3-(4-(4-((R)-2-ethyl-4-((7^1R,7^3S,E)-1^1,1^3,2^6-trimethyl-3-oxo-5^2,5^3-dihydro-1^1H,5^1H-9-oxa-4-aza-5(2,1)-benzo[d]imidazola-2(2,4)-pyridina-1(4,5)-pyrazola-7(1,3)-cyclopentanacyclononaphane-5^6-yl)piperazin-1-yl)piperidin-1-yl)-2,6-difluorophenyl)piperidine-2,6-dione]
4.4	87.6	2.38	90.2	92.5	< 0.128	100.03	2.11	CC[C@H]1CN(c2ccc3c(c2)N2C[C@@H]4CC[C@H](COc5c(c(C)nn5C)-c5cc(cc(C)n5)C(=O)/N=C/2N3)C4)CCN1C1CCN(c2cc(F)c([C@H]3CCC(=O)NC3=O)c(F)c2)CC1 [Example 189, (R)-3-(4-(4-((S)-2-ethyl-4-((7^1R,7^3S,E)-1^1,1^3,2^6-trimethyl-3-oxo-5^2,5^3-dihydro-1^1H,5^1H-9-oxa-4-aza-5(2,1)-benzo[d]imidazola-2(2,4)-pyridina-1(4,5)-pyrazola-7(1,3)-cyclopentanacyclononaphane-5^6-yl)piperazin-1-yl)piperidin-1-yl)-2,6-difluorophenyl)piperidine-2,6-dione]
2.42	87.9	1.01	88.8	89.34	1.53	99.96	1.39	Cc1cc2cc(n1)-c1c(C)nn(C)c1OC[C@H]1CC[C@H](C1)CN1/C(=N/C2=O)Nc2ccc(N3CCN(C4CCN(c5cc(F)c([C@H]6CCC(=O)NC6=O)c(F)c5)CC4)[C@H](C)C3)cc21 [Example 192, (R)-3-(2,6-difluoro-4-(4-((R)-2-methyl-4-((7^1R,7^3S,E)-1^1,1^3,2^6-trimethyl-3-oxo-5^2,5^3-dihydro-1^1H,5^1H-9-oxa-4-aza-5(2,1)-benzo[d]imidazola-2(2,4)-pyridina-1(4,5)-pyrazola-7(1,3)-cyclopentanacyclononaphane-5^6-yl)piperazin-1-yl)piperidin-1-yl)phenyl)piperidine-2,6-dione]

Source: US20240425523A1, “Compounds for the Degradation of EGFR Kinase” (Beigene Switzerland GMBH, priority 2023, published 2024)
